Tests used:
TNF [1] = experiment: TNF IC50 (column of Table 1; method not shown); type: cell-based
SIRT1 = target: T1, SIRT1 (Homo sapiens, UniProt Q96EB6); experiment: Mass spectrometry based assay to identify modulators of SIRT1 activity (deacetylation of p53-based acetylated peptide substrate); type: biochemical; details: for Emax: 25 min, read-out: % FOLD ACT. (percent maximum fold activation); for Emax / EC1.5: SIRT1 activation
T1 sequence (Q96EB6 1-747): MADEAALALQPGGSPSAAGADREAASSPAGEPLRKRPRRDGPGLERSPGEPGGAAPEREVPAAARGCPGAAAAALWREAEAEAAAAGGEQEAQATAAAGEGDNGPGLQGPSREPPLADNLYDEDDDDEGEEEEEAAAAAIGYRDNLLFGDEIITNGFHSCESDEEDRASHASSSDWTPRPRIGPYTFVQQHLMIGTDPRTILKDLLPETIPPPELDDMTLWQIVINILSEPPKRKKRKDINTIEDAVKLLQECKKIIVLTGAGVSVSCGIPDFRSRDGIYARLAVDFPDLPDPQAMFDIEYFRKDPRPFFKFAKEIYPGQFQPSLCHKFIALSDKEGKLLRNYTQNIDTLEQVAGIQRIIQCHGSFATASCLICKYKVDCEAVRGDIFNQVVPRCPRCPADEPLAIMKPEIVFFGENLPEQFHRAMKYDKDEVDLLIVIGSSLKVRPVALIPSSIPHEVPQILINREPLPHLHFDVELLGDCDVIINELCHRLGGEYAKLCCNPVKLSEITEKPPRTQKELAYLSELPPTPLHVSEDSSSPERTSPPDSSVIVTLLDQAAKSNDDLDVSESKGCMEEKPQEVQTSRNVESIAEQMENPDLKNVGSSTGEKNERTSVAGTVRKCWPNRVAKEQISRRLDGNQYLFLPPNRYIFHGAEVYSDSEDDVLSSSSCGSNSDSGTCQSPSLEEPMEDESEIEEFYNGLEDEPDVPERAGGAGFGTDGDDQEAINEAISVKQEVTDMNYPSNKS
Method in brief: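 His-tagged human SIRT1 (10 nM, E. coli) incubated 25 min at 25 °C with […] p53-derived acetylated 5TMR peptide and 120 μM βNAD+ in pH 8 Tris-acetate buffer, then formic acid-stopped. Mass spectrometry quantifies acetylated vs deacetylated peptide; nicotinamide and DMSO controls.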

TNF [2] = experiment: TNF IC50 (column of Table 1; method not in the text shown); type: cell-based

| Structure (SMILES) | IC50 (TNF [1]) [µM] | Emax (SIRT1) [%] | EC1.5 (SIRT1) | IC50 (TNF [2]) [µM] | EC1.5 (concentration giving 1.5-fold activation) (SIRT1) [nM] |
| --- | --- | --- | --- | --- | --- |
| Cc1cc(NC(=O)N2CC(C)(C)Oc3ccc(-c4cccc(N5CC[C@H](F)C5)c4)nc32)cc(C)n1 [Compound 658] | ≥ 20 | > 200 | A (EC1.5<1.0 μM) | – | – |
| Cc1cc(NC(=O)N2CC(C)(C)Oc3ccc(-c4cccc(N5CCOCC5)c4)nc32)cc(C)n1 [Compound 659] | < 20 | > 200 | A (EC1.5<1.0 μM) | – | – |
| Cc1cncc(NC(=O)N2CC(C)(C)Oc3ccc(-c4cccc(N5CC[C@H](F)C5)c4)nc32)c1 [Compound 660, (S)-6-(3-(3-fluoropyrrolidin-1-yl)phenyl)-2,2-dimethyl-N-(5-methylpyridin-3-yl)-2H-pyrido[3,2-b][1,4]oxazine-4(3H)-carboxamide] | ≥ 20 | > 200 | A (EC1.5<1.0 μM) | – | – |
| CC1(C)CN(C(=O)Nc2cncc(F)c2)c2nc(-c3cccc(N4CC[C@H](F)C4)c3)ccc2O1 [Compound 661] | ≥ 20 | > 200 | A (EC1.5<1.0 μM) | – | – |
| Cc1cc(-c2cccc(C(F)(F)F)c2)nc2c1OCCN2C(=O)Nc1ccncc1 [Compound 662] | < 20 | > 200 | A (EC1.5<1.0 μM) | – | – |
| Cc1cc(-c2cccc(C(F)(F)F)c2)nc2c1OCCN2C(=O)Nc1ccncc1F [Compound 663] | ≥ 20 | > 200 | A (EC1.5<1.0 μM) | – | – |
| Cc1cc(C)nc(NC(=O)N2CCCc3ccc(-c4cccc(F)c4)nc32)c1 [Compound 664] | ≥ 20 | > 200 | A (EC1.5<1.0 μM) | – | – |
| Cc1csc(NC(=O)N2CCOc3c(C)cc(-c4cccc(C(F)(F)F)c4)nc32)n1 [Compound 668, 8-methyl-N-(4-methylthiazol-2-yl)-6-(3-(trifluoromethyl)phenyl)-2H-pyrido[3,2-b][1,4]oxazine-4(3H)-carboxamide] | ≥ 20 | > 200 | A (EC1.5<1.0 μM) | – | – |
| Cc1cc(-c2cccc(C(F)(F)F)c2)nc2c1OCCN2C(=O)Nc1ccncn1 [Compound 669] | ≥ 20 | > 200 | A (EC1.5<1.0 μM) | – | – |
| Cc1cncc(NC(=O)N2CCOc3c(C)cc(-c4cccc(C(F)(F)F)c4)nc32)c1 [Compound 670] | ≥ 20 | > 200 | A (EC1.5<1.0 μM) | – | – |
| Cc1cc(NC(=O)N2CCOc3c(C)cc(-c4cccc(C(F)(F)F)c4)nc32)cc(C)n1 [Compound 671] | < 20 | > 200 | A (EC1.5<1.0 μM) | – | – |
| Cc1cc(C)nc(NC(=O)N2CCOc3c(C)cc(-c4cccc(C(F)(F)F)c4)nc32)c1 [Compound 672] | ≥ 20 | ≤ 200 | A (EC1.5<1.0 μM) | – | – |
| Cc1csc(NC(=O)N2CC(C)(C)Oc3ccc(-c4cccc(N5CCOCC5)c4)nc32)n1 [Compound 675] | < 20 | > 200 | A (EC1.5<1.0 μM) | – | – |
| O=C(Nc1cccc(OC[C@H](O)CO)n1)N1CCCc2ccc(-c3cccc(C(F)(F)F)c3)nc21 [Compound 678] | ≥ 20 | > 200 | A (EC1.5<1.0 μM) | – | – |
| Cc1cc(-c2cccc(C(F)(F)F)c2)nc2c1OCCN2C(=O)Nc1cccc(OCC(O)CO)n1 (stereo not drawn) [Compound 682] | < 20 | > 200 | A (EC1.5<1.0 μM) | – | – |
| Cc1cc(-c2cccc(C(F)(F)F)c2)nc2c1OCCN2C(=O)Nc1ccnc(N2CCC2)c1 [Compound 683] | ≥ 20 | > 200 | A (EC1.5<1.0 μM) | – | – |
| Cc1csc(NC(=O)N2CCOc3c(C)cc(-c4cccc(Cl)c4)nc32)n1 [Compound 684] | ≥ 20 | > 200 | A (EC1.5<1.0 μM) | – | – |
| Cc1cncc(NC(=O)N2CCOc3c(C)cc(-c4cccc(Cl)c4)nc32)c1 [Compound 688] | ≥ 20 | > 200 | A (EC1.5<1.0 μM) | – | – |
| Cc1cc(NC(=O)N2CCOc3c(C)cc(-c4cccc(Cl)c4)nc32)cc(C)n1 [Compound 689] | ≥ 20 | > 200 | A (EC1.5<1.0 μM) | – | – |
| Cc1cc(C)nc(NC(=O)N2CCOc3c(C)cc(-c4cccc(Cl)c4)nc32)c1 [Compound 690] | ≥ 20 | > 200 | A (EC1.5<1.0 μM) | – | – |

| Structure (SMILES) | IC50 (TNF [1]) [µM] | Emax (SIRT1) [%] | EC1.5 (SIRT1) | IC50 (TNF [2]) [µM] | EC1.5 (concentration giving 1.5-fold activation) (SIRT1) [nM] |
| --- | --- | --- | --- | --- | --- |
| Cc1cc(-c2cccc(Cl)c2)nc2c1OCCN2C(=O)Nc1cccc(OCC(O)CO)n1 (stereo not drawn) [Compound 691] | < 20 | > 200 | A (EC1.5<1.0 μM) | – | – |
| Cc1cc(-c2cccc(Cl)c2)nc2c1OCCN2C(=O)Nc1ccnc(N2CCC2)c1 [Compound 692] | ≥ 20 | > 200 | A (EC1.5<1.0 μM) | – | – |
| O=C(Nc1cccc(OC[C@H](O)CO)n1)N1CCOc2ccc(-c3ccc4c(c3)CCO4)nc21 [Compound 695] | < 20 | > 200 | A (EC1.5<1.0 μM) | – | – |
| O=C(Nc1cncc(OCC(O)CO)n1)N1CCOc2ccc(-c3cccc(C(F)(F)F)c3)nc21 (stereo not drawn) [Compound 696, N-(6-(2,3-dihydroxypropoxy)pyrazin-2-yl)-6-(3-(trifluoromethyl)phenyl)-2H-pyrido[3,2-b][1,4]oxazine-4(3H)-carboxamide] | < 20 | > 200 | A (EC1.5<1.0 μM) | – | – |
| O=C(Nc1ccnc(OCC(O)CO)n1)N1CCOc2ccc(-c3cccc(C(F)(F)F)c3)nc21 (stereo not drawn) [Compound 697] | – | > 200 | – | ≥ 20 | < 1000 |
| CN(C)c1cccc(-c2ccc3c(n2)N(C(=O)Nc2cccc(OC[C@H](O)CO)n2)CCC3)c1 [Compound 699] | – | > 200 | – | < 20 | < 1000 |
| N#Cc1cccc(-c2ccc3c(n2)N(C(=O)Nc2cccc(OC[C@H](O)CO)n2)CCC3)c1 [Compound 700] | – | > 200 | – | < 20 | < 1000 |
| Cc1cncc(NC(=O)N2CC(C)(C)Oc3ccc(-c4cccc(N5CC[C@@H](F)C5)c4)nc32)c1 [Compound 701, (R)-6-(3-(3-fluoropyrrolidin-1-yl)phenyl)-2,2-dimethyl-N-(5-methylpyridin-3-yl)-2H-pyrido[3,2-b][1,4]oxazine-4(3H)-carboxamide] | – | > 200 | – | < 20 | < 1000 |
| Cc1csc(NC(=O)N2CC(C)(C)Oc3ccc(-c4cccc(N5CC[C@@H](F)C5)c4)nc32)n1 [Compound 707] | – | > 200 | – | ≥ 20 | < 1000 |
| Cc1cncc(NC(=O)N2CCOc3cnc(-c4cccc(C(F)(F)F)c4)nc32)c1 [Compound 710] | – | > 200 | – | ≥ 20 | < 1000 |
| Cc1cc(NC(=O)N2CCOc3cnc(-c4cccc(C(F)(F)F)c4)nc32)cc(C)n1 [Compound 711] | – | > 200 | – | ≥ 20 | < 1000 |
| O=C(Nc1ccnc(N2CCC2)c1)N1CCOc2cnc(-c3cccc(C(F)(F)F)c3)nc21 [Compound 713] | – | > 200 | – | ≥ 20 | < 1000 |
| O=C(Nc1cccc(OCC(O)CO)n1)N1CCOc2cnc(-c3cccc(C(F)(F)F)c3)nc21 (stereo not drawn) [Compound 717] | – | ≤ 200 | – | ≥ 20 | < 1000 |
| O=C(Nc1cccc(OC[C@@H](O)CO)n1)N1CCC(F)(F)c2ccc(-c3cccc(C(F)(F)F)c3)nc21 [Compound 745] | – | > 200 | – | < 20 | < 1000 |
| Cc1cc(NC(=O)N2CCCC(=O)c3ccc(-c4cccc(Cl)c4)nc32)ccn1 [Compound 750] | – | > 200 | – | ≥ 20 | < 1000 |
| CC1CCN(C(=O)Nc2ccncc2)c2nc(-c3cccc(C(F)(F)F)c3)ccc21 (stereo not drawn) [Compound 786, 4-methyl-N-(pyridin-4-yl)-7-(3-(trifluoromethyl)phenyl)-3,4-dihydro-1,8-naphthyridine-1(2H)-carboxamide] | – | > 200 | – | < 20 | < 1000 |
| Cc1csc(NC(=O)N2CCC(C)c3ccc(-c4cccc(C(F)(F)F)c4)nc32)n1 (stereo not drawn) [Compound 787] | – | > 200 | – | ≥ 20 | < 1000 |
| CCN1CCCN(C(=O)Nc2cc(C)nc(C)c2)c2nc(-c3cccc(Cl)c3)ccc21 [Compound 793] | – | > 200 | – | < 20 | < 1000 |
| CCN1CCCN(C(=O)Nc2nc(C)cs2)c2nc(-c3cccc(Cl)c3)ccc21 [Compound 794] | – | > 200 | – | < 20 | < 1000 |
| CCN1CCCN(C(=O)Nc2ccnc(C)c2)c2nc(-c3cccc(Cl)c3)ccc21 [Compound 795] | – | > 200 | – | < 20 | < 1000 |

Reference: patent US9556201B2, “Bicyclic pyridines and analogs as sirtuin modulators” (GLAXOSMITHKLINE LLC, priority 2009, dated 2017)
